pKi: −log10 of the molar value. Where two headings read alike, the source gives them in different places.
Assays:
[1] = test system: Dirofilaria immitis microfilariae; assay: Dirofilaria immitis, Microfilariae (DiMF) In Vitro Assay
[2] = molecular target: T1, bovine vesicular acetylcholine transporter (VAChT) (Bos taurus, UniProt E1BK36); assay: Radioligand Binding Assay; details: Bovine binding Ki, CHO-K1 membranes with recombinant bovine VAChT, [3H]Compound X6 0.3 nM
T1 sequence (E1BK36 1-524): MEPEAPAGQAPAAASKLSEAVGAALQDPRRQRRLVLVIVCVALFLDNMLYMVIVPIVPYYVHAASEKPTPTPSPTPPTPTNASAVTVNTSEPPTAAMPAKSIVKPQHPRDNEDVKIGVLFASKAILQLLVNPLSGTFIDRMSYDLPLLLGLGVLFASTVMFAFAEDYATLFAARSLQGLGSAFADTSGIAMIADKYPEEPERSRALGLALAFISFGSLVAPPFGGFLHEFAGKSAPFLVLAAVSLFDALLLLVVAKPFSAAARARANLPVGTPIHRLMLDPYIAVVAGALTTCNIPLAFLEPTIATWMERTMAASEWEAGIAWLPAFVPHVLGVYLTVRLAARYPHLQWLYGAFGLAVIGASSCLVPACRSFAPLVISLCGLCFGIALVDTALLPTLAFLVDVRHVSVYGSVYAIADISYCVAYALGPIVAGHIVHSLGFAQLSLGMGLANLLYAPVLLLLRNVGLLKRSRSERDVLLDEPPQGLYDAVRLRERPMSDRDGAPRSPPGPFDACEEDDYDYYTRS

[3] = test system: Haemonchus contortus L3; assay: Haemonchus contortus, Larvae Stage 3 (HcL3) In Vitro Assay
[4] = test system: mammals; details: Brittain et. al.; cited from earlier work
[5] = molecular target: T2, vertebrate VAChT (Homo sapiens, UniProt Q16572); details: Khare et. al.; cited from earlier work
T2 sequence (Q16572 1-532): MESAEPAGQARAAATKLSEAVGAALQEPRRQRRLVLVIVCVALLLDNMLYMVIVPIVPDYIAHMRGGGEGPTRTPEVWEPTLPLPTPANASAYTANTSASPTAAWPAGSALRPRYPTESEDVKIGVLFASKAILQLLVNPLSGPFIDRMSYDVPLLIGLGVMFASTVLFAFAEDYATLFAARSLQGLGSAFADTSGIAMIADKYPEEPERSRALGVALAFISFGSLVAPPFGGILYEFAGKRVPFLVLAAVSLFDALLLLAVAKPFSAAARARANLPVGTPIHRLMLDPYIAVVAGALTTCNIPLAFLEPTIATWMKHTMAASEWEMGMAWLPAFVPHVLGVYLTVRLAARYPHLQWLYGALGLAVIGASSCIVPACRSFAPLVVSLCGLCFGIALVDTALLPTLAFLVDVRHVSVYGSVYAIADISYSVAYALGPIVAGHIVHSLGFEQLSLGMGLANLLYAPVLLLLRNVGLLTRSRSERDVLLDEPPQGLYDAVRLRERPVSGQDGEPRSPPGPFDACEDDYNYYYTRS

[6] = Dirofilaria immitis, 72 h, read-out: Di MF, MEC, decrease in microfilariae motility by visual assessment, curve starting at 100 μM
[7] = Haemonchus contortus, 96 h, read-out: HcL3 MEC, Minimal Effective Concentration whereby worm motility is inhibited by approximately 70%, 37° C., tested 0.001-100 μM
[8] = Dirofilaria immitis, 72 hours, read-out: Di MF
[9] = Haemonchus contortus, 96 hours, 37° C., read-out: HcL3 MEC

SMILES	minimal effective concentration [1, 6] [µM]	pKi [2]	minimal effective concentration [3, 7] [µM]	minimal effective concentration [1, 8] [µM]	minimal effective concentration [3, 9] [µM]	also measured
O=C(NCc1ccnc(F)c1)N1CC2(CCN(C/C=C/c3ccc(C(F)(F)F)cc3)CC2)c2cc(Cl)ccc21 [Example 184, (E)-5-chloro-N-((2-fluoropyridin-4-yl)methyl)-1′-(3-(4-(trifluoromethyl)phenyl)allyl)spiro[indoline-3,4′-piperidine]-1-carboxamide]	3.3	6.65	3.3	–	–	–
O=C(NCc1ccnc(Cl)c1)N1CC2(CCN(C/C=C/c3ccc(Cl)cc3)CC2)c2cc(OC(F)(F)F)ccc21 [Example 185, (E)-1′-(3-(4-chlorophenyl)allyl)-N-((2-chloropyridin-4-yl)methyl)-5-(trifluoromethoxy)spiro[indoline-3,4′-piperidine]-1-carboxamide]	–	6.55	–	–	–	minimal effective concentration ([1]; MEC, decrease in microfilariae motility by visual assessment, 72 hours, curve starting at 100 μM, read-out: Di MF): 10.0 µM; minimal effective concentration ([3]; Minimal Effective Concentration whereby worm motility is inhibited by approximately 70%, 96 hours, 37° C., tested 0.001-100 μM, read-out: HcL3 MEC): 3.3 µM
Cc1noc(C)c1-c1ccc2c(c1)C1(CCN(C/C=C/c3ccc(Cl)cc3)CC1)CN2C(=O)NCc1ccnc(-c2c(C)noc2C)c1 [Example 186, (E)-1′-(3-(4-chlorophenyl)allyl)-5-(3,5-dimethylisoxazol-4-yl)-N-((2-(3,5-dimethylisoxazol-4-yl)pyridin-4-yl)methyl)spiro[indoline-3,4′-piperidine]-1-carboxamide]	3.3	5.87	100	–	–	–
Cc1noc(C)c1-c1ccc2c(c1)C1(CCN(C/C=C/c3ccc(Cl)cc3)CC1)CN2C(=O)NCc1ccnc(Cl)c1 [Example 187, (E)-1′-(3-(4-chlorophenyl)allyl)-N-((2-chloropyridin-4-yl)methyl)-5-(3,5-dimethylisoxazol-4-yl)spiro[indoline-3,4′-piperidine]-1-carboxamide]	–	5.61	–	3.3	100	–
O=C(NCc1cnc(Cl)s1)N1CC2(CCN(C/C=C/c3ccc(Cl)cc3)CC2)c2cc(OC(F)(F)F)ccc21 [Example 189, (E)-1′-(3-(4-chlorophenyl)allyl)-N-((2-chlorothiazol-5-yl)methyl)-5-(trifluoromethoxy)spiro[indoline-3,4′-piperidine]-1-carboxamide]	–	6.10	–	14	100	–
OC1CCCCC1N1CCC(c2ccccc2)CC1 (centres unmarked) [Vesamicol, 2-(4-phenyl-piperidino)-cyclohexanol]	–	–	–	–	–	toxicity to mammals [4]: highly toxic; binding affinity to vertebrate VAChT [5]: high affinity

Reference: patent US20160296499A1, “Spiroindoline Antiparasitic Derivatives” (ZOETIS SERVICES LLC, priority 2013, published 2016)
